Test results from article PMC6068282, “In Silico Discovery of Plant-Origin Natural Product Inhibitors of Tumor Necrosis Factor (TNF) and Receptor Activator of NF-κB Ligand (RANKL)” (Frontiers in Pharmacology, 2018).

Target: T1, TNF / human TNF (TNF/TNFR1 ELISA) (Homo sapiens, UniProt P01375)
T1 construct: recombinant human TNF (soluble; biologically active homotrimer); with Tumor necrosis factor receptor superfamily member 1A
Assay: ELISA, TNF binding to TNFR1

T1 sequence (P01375 77-233): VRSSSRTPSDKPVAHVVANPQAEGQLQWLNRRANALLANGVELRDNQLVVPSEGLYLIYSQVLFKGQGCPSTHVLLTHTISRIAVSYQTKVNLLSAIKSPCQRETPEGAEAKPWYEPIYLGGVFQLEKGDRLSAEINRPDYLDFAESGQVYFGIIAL

Row | IC50 [µM] | Compound
1 | 3.3 ± 0.9 | Oc1ccc([C@@H]2c3c(O)cc4c(c3[C@H]3[C@H](c5ccc(O)cc5)c5c(O)cc6c(c5[C@@H]23)[C@@H](c2cc(O)cc(O)c2)[C@H](c2ccc(O)cc2)O6)[C@@H](c2cc(O)cc(O)c2)[C@H](c2ccc(O)cc2)O4)cc1 [A11, (1R,2R,6R,6aR,7R,8R,12R,12aR)-1,7-Bis(3,5-dihydroxyphenyl)-2,6,8,12-tetrakis(4-hydroxyphenyl)-1,2,6,6a,7,8,12,12a-octahydrofuro[2″,3″:6′,7′]indeno[1′,2′:2,3]indeno [5,4-b]furan-5,11-diol]
2 | 4.1 ± 1.7 | C[C@@H]1O[C@@H](Oc2c(-c3ccc(O)cc3)oc3cc(O)cc(O)c3c2=O)[C@H](O[C@@H]2O[C@H](COC(=O)/C=C/c3ccc(O)cc3)[C@@H](O)[C@H](O)[C@H]2O)[C@H](O)[C@H]1O [A25, [(2R,3S,4S,5R,6S)-6-[(2S,3R,4R,5R,6S)-2-[5,7-dihydroxy-2-(4-hydroxyphenyl)-4-oxochromen-3-yl]oxy-4,5-dihydroxy-6-methyloxan-3-yl]oxy-3,4,5-trihydroxyoxan-2-yl]methyl(E)-3-(4-hydroxyphenyl)prop-2-enoate]
